Reference: patent publication US20110117193A1, “ANTIRETROVIRAL DRUG FORMULATIONS FOR TREATMENT OF CHILDREN EXPOSED TO HIV/AIDS” (priority 2008, published 2011)

Assay: pH of suspensions
Type: physicochemical
Details: 0.2% w/v solution in water
Protocol: The effect of the suspending agent and sweetener on the pH and viscosity of the suspensions was examined. AVICEL® RC 591, alone and in combination with other potential formulation components, was suspended in water. The pH of the suspensions was measured using a pH meter. The viscosity of the suspensions was measured on a Brookfield […] RV series viscometer: spindle size 4 at 20 rpm was used. The suspensions were visually inspected for signs of precipitation, sedimentation, and consistency.

Question: With OC[C@H]1O[C@H](O[C@]2(CCl)O[C@H](CCl)[C@@H](O)[C@@H]2O)[C@H](O)[C@@H](O)[C@H]1Cl [sucralose] as the compound, how does the pH of solution read?
Answer: The pH of solution was 6.4.
